Test: Observation of particles under optical microscope (Test Example I-4)
Type: physicochemical
Details: magnification of 400 times

Q: With `COc1c(O)c(C)c(C/C=C(\C)CC/C=C(\C)CC/C=C(\C)CC/C=C(\C)CC/C=C(\C)CC/C=C(\C)CC/C=C(\C)CC/C=C(\C)CC/C=C(\C)CCC=C(C)C)c(O)c1OC` [ubiquinol powder (Kaneka QH), ubiquinol] as the molecule, how does the “crystals observed under optical microscope” value read?
A: irregular crystal structure

Reference: US9757332B2, “Gel-like composition having high ubiquinol content” (UHA Mikakuto Co., Ltd., priority 2013, dated 2017)
